Data on 40 molecules can be found in ChEMBL document CHEMBL1154945, “Decahydroisoquinoline derivatives as novel non-peptidic, potent and subtype-selective somatostatin sst(3) receptor antagonists” (Bioorg Med Chem Lett, 2010).

Experiment [1] deals with Somatostatin receptor type 3 (Homo sapiens, UniProt P32745). Put plainly: Binding affinity to human SST3 receptor.
Experiment [2] addresses Somatostatin receptor type 1 (Homo sapiens, UniProt P30872). Put plainly: Binding affinity to human SST1 receptor.
The species named for a further experiment is Homo sapiens. The experiment is described as follows: Selectivity for human SST3 over human SST1.

Usually Kd stands for a measure of binding affinity in units of concentration. The low end stands for a tighter complex, the high end for a looser complex.

Chain of Somatostatin receptor type 3 (P32745 whole entry): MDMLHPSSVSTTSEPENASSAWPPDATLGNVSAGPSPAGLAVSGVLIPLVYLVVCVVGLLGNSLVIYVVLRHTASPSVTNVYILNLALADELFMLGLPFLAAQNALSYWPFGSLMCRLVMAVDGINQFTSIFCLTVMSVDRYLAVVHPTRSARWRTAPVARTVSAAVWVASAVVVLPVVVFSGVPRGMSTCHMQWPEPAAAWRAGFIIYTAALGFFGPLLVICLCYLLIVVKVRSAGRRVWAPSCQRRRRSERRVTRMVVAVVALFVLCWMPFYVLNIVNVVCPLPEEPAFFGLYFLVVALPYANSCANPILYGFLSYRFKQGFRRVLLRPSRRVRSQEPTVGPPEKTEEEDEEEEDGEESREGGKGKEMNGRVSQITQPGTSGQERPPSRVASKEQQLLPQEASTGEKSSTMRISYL
Chain of Somatostatin receptor type 1 (P30872 whole entry): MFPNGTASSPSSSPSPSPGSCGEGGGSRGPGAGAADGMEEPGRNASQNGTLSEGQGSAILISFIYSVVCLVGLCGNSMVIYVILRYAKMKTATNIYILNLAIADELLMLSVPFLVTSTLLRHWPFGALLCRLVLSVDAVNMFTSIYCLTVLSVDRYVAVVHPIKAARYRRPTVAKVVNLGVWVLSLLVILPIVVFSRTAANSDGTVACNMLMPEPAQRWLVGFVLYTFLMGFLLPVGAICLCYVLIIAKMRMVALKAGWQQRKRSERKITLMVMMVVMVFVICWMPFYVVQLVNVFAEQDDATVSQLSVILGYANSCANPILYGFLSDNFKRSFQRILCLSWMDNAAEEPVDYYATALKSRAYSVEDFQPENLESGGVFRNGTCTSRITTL

With `CC(Cc1ccc2c(c1)OCO2)CN1C[C@@H](C(=O)N2CCN(c3ccc([N+](=O)[O-])cc3)CC2)C[C@@H]2CCCC[C@H]21` (mixture of isomers), the results for the Kd in experiment [1] and in experiment [2] were 155 nM and 537 nM, respectively.
For `C[C@@H](Cc1ccc2nccnc2c1)CN1C[C@@H]2CCCC[C@@H]2[C@H](C(=O)N2CCN(c3ccc(F)c(F)c3)CC2)C1`, in that order: 10.7 nM and 2630 nM.
In the case of `CC(Cc1ccc2c(c1)OCO2)CN1CC2CCCCC2C(C(=O)N2CCN(c3cc4nccnc4cn3)CC2)C1` (stereo not given), the dissociation constant Kd in experiment [1] is 1580 nM.
For the molecule `Cc1cn2cc(C[C@H](C)CN3C[C@@H]4CCCC[C@@H]4[C@H](C(=O)N4CCN(c5ccc(F)c(F)c5)CC4)C3)ccc2n1`, the Kd in experiment [1] was 107 nM; in experiment [2], 39.8 nM. Besides, in the experiment filed under Homo sapiens, the Ratio stood at 0.4.
With `CC(Cc1ccc2c(c1)OCO2)CN1CC2CCCCC2C(C(=O)N2CCN(c3ccc4nonc4n3)CC2)C1` (stereo not given), the Kd in experiment [1] was 19.5 nM. This counts as double-digit nanomolar.
For the molecule `CC(Cc1ccc2c(c1)OCO2)CN1CC2CCCCC2C(C(=O)N2CCN(c3cccc(C(F)(F)F)n3)CC2)C1` (stereo not given), in experiment [1], the Kd was 741 nM. Against the preceding molecule, the Kd is about 38-fold higher.
As to `CC(Cc1ccc2c(c1)OCO2)CN1CCCC(C(=O)N2CCN(c3ccc([N+](=O)[O-])cc3)CC2)C1` (racemic), the values for the Kd in experiment [1] and in experiment [2] were 85.1 nM and 102 nM, respectively.
As for `CC(Cc1ccc2c(c1)OCO2)CN1CC2CCCCC2C(C(=O)N2CCN(c3cccc4nonc34)CC2)C1` (stereo not given), in experiment [1], the Kd was 91.2 nM.
`COC(=O)c1cc(CC(C)CN2CC3CCCCC3C(C(=O)N3CCN(c4ccc([N+](=O)[O-])cc4)CC3)C2)cc(C(=O)OC)c1` (racemic): the Kd in experiment [1] is 2.88 nM; in experiment [2] it was 1000 nM.
`CN(CCC(=O)N1CCN(c2ccc([N+](=O)[O-])cc2)CC1)CCC1c2ccccc2-c2ccccc21`: the Kd is 1050 nM in experiment [1] and 7.59 nM in experiment [2].
In the case of `CC(Cc1ccc2c(c1)OCO2)CN1CC2CCCCC2C(C(=O)N2CCN(c3ccc(Cl)cn3)CC2)C1` (stereo not given), the Kd in experiment [1] is 91.2 nM. In other words, the double-digit nanomolar range.
Turning to `Cc1nc2ccc(C[C@H](C)CN3C[C@@H]4CCCC[C@@H]4[C@H](C(=O)N4CCN(c5ccc(F)c(F)c5)CC4)C3)cn2n1`, the Ratio in the experiment filed under Homo sapiens came to 620.
The molecule `CC(Cc1ccc2c(c1)OCO2)CN1CC2CCCCC2C(C(=O)N2CCN(c3ccc4nccnc4n3)CC2)C1` (stereo not given) showed a Kd in experiment [1] of 107 nM.
With `CC(Cc1ccc2c(c1)OCO2)CN1C[C@H]2CCCC[C@H]2[C@H](C(=O)N2CCN(c3ccc([N+](=O)[O-])cc3)CC2)C1` (mixture of isomers), the Kd in experiment [1] is 1120 nM; in experiment [2], 6170 nM.
Molecule `CC(Cc1ccc2c(c1)OCO2)CN1CC2CCCCC2C(C(=O)N2CCN(c3ccc4nonc4c3)CC2)C1` (stereo not given) showed a Kd in experiment [1] of 20 nM.
Same read-out and setting: the result for `CC(Cc1ccc2c(c1)OCO2)CN1CC2CCCCC2C(C(=O)N2CCN(c3cccc(F)c3)CC2)C1` (stereo not given) reads 200 nM.
As to `COC(=O)c1cc(C[C@@H](C)CN2C[C@@H]3CCCC[C@@H]3[C@H](C(=O)N3CCN(c4ccc([N+](=O)[O-])cc4)CC3)C2)cc(C(=O)OC)c1`, the Kd in experiment [1] was 2.24 nM; in experiment [2], 437 nM.
In experiment [1], `CC(Cc1ccc2c(c1)OCO2)CN1CC2CCCCC2C(C(=O)N2CCN(c3cccc4nccn34)CC2)C1` (stereo not given) gave a Kd of 1260 nM.
Regarding `C[C@@H](Cc1ccc2ocnc2c1)CN1C[C@@H]2CCCC[C@@H]2[C@H](C(=O)N2CCN(c3ccc(F)c(F)c3)CC2)C1`, the Kd was 11 nM in experiment [1] and 1620 nM in experiment [2].
Take `CC(Cc1ccc2c(c1)OCO2)CN1C[C@H](C(=O)N2CCN(c3ccc([N+](=O)[O-])cc3)CC2)C[C@@H]2CCCC[C@@H]21` (mixture of isomers): the figures for the Kd in experiment [1] and in experiment [2] were 162 nM and 490 nM, respectively.
For the molecule `CC(Cc1ccc2c(c1)OCO2)CN1CC2CCCCC2C(C(=O)N2CCN(c3cccc4nccnc34)CC2)C1` (stereo not given), in experiment [1], binding was put at a Kd of 1350 nM. This lies in the single-digit micromolar range.
In experiment [1], `CC(Cc1ccc2c(c1)OCO2)CN1CC2CCCCC2C(C(=O)N2CCN(c3ccc(C#N)cn3)CC2)C1` (stereo not given) gave an equilibrium dissociation constant (Kd) of 79.4 nM. This Kd is about 17-fold lower than that of the molecule before.
`CC(Cc1ccc2c(c1)OCO2)CN1CC2CCCCC2C(C(=O)N2CCN(c3cccc4nncn34)CC2)C1` (stereo not given) showed a Kd in experiment [1] of 2690 nM. This Kd is about 34-fold higher than that of the molecule before.
On the same count and under the same terms, the result for `CC(Cc1ccc2c(c1)OCO2)CN1CC2CCCCC2C(C(=O)N2CCN(c3cccc(Cl)n3)CC2)C1` (stereo not given) reads 407 nM.
Consider `CCOc1ccc(C[C@H](C)CN2C[C@@H]3CCCC[C@@H]3[C@H](C(=O)N3CCN(c4ccc(F)c(F)c4)CC3)C2)cn1`, for which the Kd was 14.1 nM in experiment [1] and 2340 nM in experiment [2].
The molecule `CC(Cc1ccc2c(c1)OCO2)CN1CC2CCCCC2C(C(=O)N2CCN(c3cccc(=O)n3C)CC2)C1` (stereo not given) showed a Kd in experiment [1] of 2400 nM.
For `CC(Cc1ccc2c(c1)OCO2)CN1CC2CCCCC2C(C(=O)N2CCN(c3ccc(F)cc3)CC2)C1` (stereo not given), in experiment [1], binding was characterised by a dissociation constant (Kd) of 57.5 nM.
In turn, `CC(Cc1ccc2c(c1)OCO2)CN1CC2CCCCC2C(C(=O)N2CCN(c3ccc4nsnc4n3)CC2)C1` (stereo not given) gave an equilibrium dissociation constant (Kd) in experiment [1] of 95.5 nM.
As for `COC(=O)c1cc(CC(C)CN2C[C@H]3CCCC[C@H]3[C@@H](C(=O)N3CCN(c4ccc([N+](=O)[O-])cc4)CC3)C2)cc(C(=O)OC)c1` (mixture of isomers), the Kd in experiment [1] was 107 nM; in experiment [2] it was 2340 nM.
Take `C[C@@H](Cc1ccc2ncnn2c1)CN1C[C@@H]2CCCC[C@@H]2[C@H](C(=O)N2CCN(c3ccc(F)c(F)c3)CC2)C1`: the Kd in experiment [1] is 34.7 nM; in experiment [2] it was 9120 nM.
For `CCNc1ccc(C[C@H](C)CN2C[C@@H]3CCCC[C@@H]3[C@H](C(=O)N3CCN(c4ccc(F)c(F)c4)CC3)C2)cn1`, in that order: 28.8 nM and 1910 nM.
In experiment [1], `CC(Cc1ccc2c(c1)OCO2)CN1CC2CCCCC2C(C(=O)N2CCN(c3cccc4nsnc34)CC2)C1` (stereo not given) had a Kd of 191 nM.
The same measure, in the same setting: the result for `CC(Cc1ccc2c(c1)OCO2)CN1CC2CCCCC2C(C(=O)N2CCN(c3ccc4nccn4n3)CC2)C1` (stereo not given) reads 240 nM; that for `CC(Cc1ccc2c(c1)OCO2)CN1CC2CCCCC2C(C(=O)N2CCN(c3ccc(F)c(F)c3)CC2)C1` (stereo not given), 20.9 nM.
With `C[C@@H](Cc1ccc2c(c1)OCO2)CN1C[C@@H]2CCCC[C@@H]2[C@H](C(=O)N2CCN(c3ccc(F)c(F)c3)CC2)C1`, the Kd was 8.51 nM in experiment [1] and 912 nM in experiment [2].
Consider `O=C(C1CCCN(CCC2c3ccccc3-c3ccccc32)C1)N1CCN(c2ccc([N+](=O)[O-])cc2)CC1` (racemic), for which the Kd in experiment [1] was 117 nM; in experiment [2] it was 120 nM.
In experiment [1], `CC(Cc1ccc2c(c1)OCO2)CN1CC2CCCCC2C(C(=O)N2CCN(c3ccccn3)CC2)C1` (stereo not given) showed a Kd of 331 nM. This lies in the sub-micromolar range.
For `COC(=O)c1cc(CC(C)CN2C[C@@H]3CCCC[C@@H]3[C@H](C(=O)N3CCN(c4ccc([N+](=O)[O-])cc4)CC3)C2)cc(C(=O)OC)c1` (mixture of isomers), the Kd in experiment [1] is 1.35 nM; in experiment [2], 398 nM.
For `O=C(CCN(CCC1c2ccccc2-c2ccccc21)CC1CC1)N1CCN(c2ccc([N+](=O)[O-])cc2)CC1`, in that order: 302 nM and 77.6 nM.
On to `CC(Cc1ccc2c(c1)OCO2)CN1C[C@@H](C(=O)N2CCN(c3ccc([N+](=O)[O-])cc3)CC2)C[C@@H]2CCCC[C@@H]21` (mixture of isomers), for which the values for the Kd in experiment [1] and in experiment [2] were 1230 nM and 2450 nM, respectively.
